Laboratory results from PubChem BioAssay AID504457 (Sanford-Burnham Center for Chemical Genomics, 2011).
Calls of active or inactive are those of the source.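 Rule for the calls: active = compounds with IC50 below 20 µM; inactive = the rest.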

These compounds were tested against Type-1 angiotensin II receptor (Homo sapiens) (UniProt P30556) (assay: antagonism of AGTR1 beta-arrestin recruitment – cell-based, CHO-K1 AGTR1, luminescence, set 5, selectivity assay for APJ receptor antagonist project, SAR follow-up (AID 504457)). Conditions: CHO-K1 AGTR1 PathHunter beta-arrestin.
Chain of Type-1 angiotensin II receptor (Homo sapiens) (P30556 whole entry, looked up): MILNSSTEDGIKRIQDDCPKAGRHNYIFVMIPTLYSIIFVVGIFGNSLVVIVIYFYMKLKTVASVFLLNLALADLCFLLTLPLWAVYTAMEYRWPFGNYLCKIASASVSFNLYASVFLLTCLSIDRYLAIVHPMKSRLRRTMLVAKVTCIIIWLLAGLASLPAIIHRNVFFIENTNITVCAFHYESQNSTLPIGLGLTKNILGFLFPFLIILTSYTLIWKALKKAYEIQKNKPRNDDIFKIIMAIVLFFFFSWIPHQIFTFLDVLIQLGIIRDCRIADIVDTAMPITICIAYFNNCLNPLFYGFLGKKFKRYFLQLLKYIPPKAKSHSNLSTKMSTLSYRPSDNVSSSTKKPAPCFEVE

IC50, inactive:
CC(=O)Oc1cc2c(cc1Cl)C(c1ccccc1Cl)CC1(CC(C)(C)NC(=S)N1)O2 (centres undefined) > 79 µM
CC1(C)CC2(CC(c3ccc(F)cc3)c3ccc(O)cc3O2)NC(=S)N1 (centres undefined)
O=C(Oc1coc(CSc2ncccn2)cc1=O)c1ccc(Br)cc1 > 79 µM
Cc1cc(C)nc(SCc2cc(=O)c(O)co2)n1 > 79 µM
Cc1ccccc1C1CC2(CC(C)(C)NC(=S)N2)Oc2cc(O)c(Cl)cc21 (centres undefined)
Cc1ccnc(SCc2cc(=O)c(OC(=O)c3ccc([N+](=O)[O-])cc3)co2)n1 > 79 µM
COc1ccccc1NC(=O)CN1C(=O)C(=O)c2ccccc21 > 79 µM
C=CCOc1ccc(COc2ccccc2)cc1 > 79 µM
COc1cc(CSc2nc(C)cc(C)n2)ccc1O > 79 µM
COc1ccc(C2CC3(CC(C)(C)NC(=S)N3)Oc3cc(O)cc(C)c32)cc1 (centres undefined) > 79 µM
Cc1ccnc(SCc2cc(=O)c(OC(=O)c3ccc(C#N)cc3)co2)n1 > 79 µM
Cc1ccc(C(=O)Oc2coc(CSc3ncccn3)cc2=O)cc1[N+](=O)[O-] > 79 µM
C=CCOc1ccc(CSc2nc(C)cc(C)n2)cc1OC > 79 µM
COc1ccc(C2CC3(CC(C)(C)NC(=S)N3)Oc3cc(OC(C)=O)cc(C)c32)cc1 (centres undefined) > 79 µM
N#Cc1ccc(C(=O)Oc2coc(CSc3ncccn3)cc2=O)cc1 > 79 µM
O=c1cc(CSc2ncccn2)occ1O > 79 µM
Cc1ccnc(SCc2cc(=O)c(OC(=O)c3ccccc3)co2)n1 > 79 µM
C=CCOc1ccc(CSc2nccc(C)n2)cc1 > 79 µM
Cc1cc(C)nc(SCc2cc(=O)c(OC(=O)c3cc([N+](=O)[O-])ccc3Cl)co2)n1
